Test results as given in the supplement of paper PMC11451515.

How the values were obtained:
Conditions in all cases: 48 h
NOMO1 [1] = assay: AUC of viability dose-response curve (% viability x log10 dose units); higher = less sensitive
In short: (§1)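 Leukemia cells adapted to each medium (500 or 1000 cells/well, 1536-well plates) were exposed to library compounds in DMSO for 48 h at 37°C at 11 threefold doses, 47 μM to 0.79 nM. Luminescence by CellTiter-Glo One was normalised per plate to DMSO and cell-free wells, then fitted with a four-parameter log-logistic curve on log10 dose. Curves above full viability were scaled and quality-control failures removed before area under the curve was integrated by trapezoidal rule.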

P12-Ichikawa [2] = assay: as above
In short: as §1

SEM cells [3] = assay: as above
In short: as §1

NOMO1 [4] = assay: cell viability relative to DMSO control; higher = less cytotoxic
In short: (§2)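 Three leukemia lines were tested: NOMO1 and SEM at 500 cells/well and P12-Ichikawa at 1000 cells/well. Each was adapted for at least four passages in each medium and seeded in 5 μl in 1536-well plates, and library compounds in DMSO were pin-dosed from 47 μM to 0.79 nM in 11 threefold steps. After 48 h at 37°C, CellTiter-Glo One luminescence was read. Viability is a percentage relative to DMSO wells on each plate, with cell-free wells as background.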

P12-Ichikawa [5] = assay: as above
In short: as §2

SEM cells [6] = assay: as above
In short: as §2

OC[C@H]1O[C@@H](O[C@@H]2O\C=C(/[C@H]3C\C=C(CO)/[C@@H]23)C(O)=O)[C@H](O)[C@@H](O)[C@@H]1O
AUC of viability dose-response curve
Conditions	NOMO1 [1]	P12-Ichikawa [2]	SEM cells [3]
HPLM + 10% dialyzed FBS	453	449	452
RPMI 5 mM glucose + 10% FBS	449	468	475
RPMI 5 mM glucose + 10% dialyzed FBS	455	418	462

NC/1=N/C(=O)C2=C(N1)[N](C=N2)[C@@H]3C[C@H](O)[C@@H](CO)C3=C
AUC of viability dose-response curve
Conditions	NOMO1 [1]	P12-Ichikawa [2]	SEM cells [3]
HPLM + 10% dialyzed FBS	385	351	248
RPMI 5 mM glucose + 10% FBS	423	342	272
RPMI 5 mM glucose + 10% dialyzed FBS	378	331	200

C[C@H](CCC(=O)O)[C@H]1CC[C@H]2[C@@H]3[C@@H](O)C[C@@H]4C[C@H](O)CC[C@]4(C)[C@H]3CC[C@]12C
AUC of viability dose-response curve
Conditions	NOMO1 [1]	P12-Ichikawa [2]	SEM cells [3]
HPLM + 10% dialyzed FBS	401	445	441
RPMI 5 mM glucose + 10% FBS	414	461	462
RPMI 5 mM glucose + 10% dialyzed FBS	398	435	449

CC(C)OC(=O)/C1=C/N(CC(C)(C)C2=C1[NH]C3=CC=CC=C23)C(=O)C4=CC=C(F)C(=C4)F
AUC of viability dose-response curve
Conditions	HPLM + 10% dialyzed FBS	RPMI 5 mM glucose + 10% FBS	RPMI 5 mM glucose + 10% dialyzed FBS
NOMO1 [1]	424	384	351
SEM cells [3]	342	364	394

cell viability [%]
Conditions	NOMO1 [4]	P12-Ichikawa [5]	SEM cells [6]
HPLM + 10% dialyzed FBS, 0.000781 µM	86.3	83.2	71.9
HPLM + 10% dialyzed FBS, 0.00234 µM	80.4	84.5	76
HPLM + 10% dialyzed FBS, 0.00702 µM	86	82.2	75.3
HPLM + 10% dialyzed FBS, 0.0211 µM	91.8	89.6	73.4
HPLM + 10% dialyzed FBS, 0.0632 µM	81.3	89.4	81
HPLM + 10% dialyzed FBS, 0.19 µM	89.8	83.4	68.9
HPLM + 10% dialyzed FBS, 0.569 µM	98.3	86.4	62
HPLM + 10% dialyzed FBS, 1.71 µM	98	83.9	72.9
HPLM + 10% dialyzed FBS, 5.12 µM	89.9	87.8	78.9
HPLM + 10% dialyzed FBS, 15.4 µM	85.6	91.6	59.6
HPLM + 10% dialyzed FBS, 46.1 µM	91.2	95.7	67.1
RPMI 5 mM glucose + 10% FBS, 0.000781 µM	72.7	79	76.8
RPMI 5 mM glucose + 10% FBS, 0.00234 µM	78.4	78.7	83.5
RPMI 5 mM glucose + 10% FBS, 0.00702 µM	79.7	79	88.2
RPMI 5 mM glucose + 10% FBS, 0.0211 µM	80.8	79	80.2
RPMI 5 mM glucose + 10% FBS, 0.0632 µM	89	83.4	79.8
RPMI 5 mM glucose + 10% FBS, 0.19 µM	79.4	83.9	67.7
RPMI 5 mM glucose + 10% FBS, 0.569 µM	84.3	84.9	71.1
RPMI 5 mM glucose + 10% FBS, 1.71 µM	76.4	82.9	71.8
RPMI 5 mM glucose + 10% FBS, 5.12 µM	82.7	87.2	79.6
RPMI 5 mM glucose + 10% FBS, 15.4 µM	78.2	84.1	61.8
RPMI 5 mM glucose + 10% FBS, 46.1 µM	83.5	83.8	78.6
RPMI 5 mM glucose + 10% dialyzed FBS, 0.000781 µM	74.5	75.3	72.9
RPMI 5 mM glucose + 10% dialyzed FBS, 0.00234 µM	74.8	77.3	82
RPMI 5 mM glucose + 10% dialyzed FBS, 0.00702 µM	70.6	78.1	80
RPMI 5 mM glucose + 10% dialyzed FBS, 0.0211 µM	70.8	85.2	86
RPMI 5 mM glucose + 10% dialyzed FBS, 0.0632 µM	69.4	78.5	94.9
RPMI 5 mM glucose + 10% dialyzed FBS, 0.19 µM	70.6	80.7	89
RPMI 5 mM glucose + 10% dialyzed FBS, 0.569 µM	66.6	75.9	71.5
RPMI 5 mM glucose + 10% dialyzed FBS, 1.71 µM	82	75.7	87.4
RPMI 5 mM glucose + 10% dialyzed FBS, 5.12 µM	80.5	78.4	106
RPMI 5 mM glucose + 10% dialyzed FBS, 15.4 µM	79.1	73.7	65.5
RPMI 5 mM glucose + 10% dialyzed FBS, 46.1 µM	72.5	82.4	73.1

Cc1ccccc1C(=O)c1ccc(Nc2ccc(Br)cc2N)cc1Cl
AUC of viability dose-response curve
Conditions	HPLM + 10% dialyzed FBS	RPMI 5 mM glucose + 10% FBS	RPMI 5 mM glucose + 10% dialyzed FBS
NOMO1 [1]	467	466	455
P12-Ichikawa [2]	454	461	441

cell viability [%]
Conditions	NOMO1 [4]	P12-Ichikawa [5]	SEM cells [6]
HPLM + 10% dialyzed FBS, 0.000781 µM	–	117	–
HPLM + 10% dialyzed FBS, 0.00234 µM	–	122	–
HPLM + 10% dialyzed FBS, 0.00702 µM	–	119	–
HPLM + 10% dialyzed FBS, 0.0211 µM	–	104	–
HPLM + 10% dialyzed FBS, 0.0632 µM	–	114	–
HPLM + 10% dialyzed FBS, 0.19 µM	–	118	–
HPLM + 10% dialyzed FBS, 0.569 µM	–	114	–
HPLM + 10% dialyzed FBS, 1.71 µM	–	114	–
HPLM + 10% dialyzed FBS, 5.12 µM	–	105	–
HPLM + 10% dialyzed FBS, 15.4 µM	–	98.6	–
HPLM + 10% dialyzed FBS, 46.1 µM	–	51.5	–
RPMI 5 mM glucose + 10% FBS, 0.000781 µM	107	117	96
RPMI 5 mM glucose + 10% FBS, 0.00234 µM	123	122	106
RPMI 5 mM glucose + 10% FBS, 0.00702 µM	116	121	97.7
RPMI 5 mM glucose + 10% FBS, 0.0211 µM	122	110	17.3
RPMI 5 mM glucose + 10% FBS, 0.0632 µM	120	119	109
RPMI 5 mM glucose + 10% FBS, 0.19 µM	113	108	123
RPMI 5 mM glucose + 10% FBS, 0.569 µM	110	117	112
RPMI 5 mM glucose + 10% FBS, 1.71 µM	121	113	107
RPMI 5 mM glucose + 10% FBS, 5.12 µM	116	111	106
RPMI 5 mM glucose + 10% FBS, 15.4 µM	103	108	83.2
RPMI 5 mM glucose + 10% FBS, 46.1 µM	90.1	53.7	18.2
RPMI 5 mM glucose + 10% dialyzed FBS, 0.000781 µM	131	117	117
RPMI 5 mM glucose + 10% dialyzed FBS, 0.00234 µM	116	121	121
RPMI 5 mM glucose + 10% dialyzed FBS, 0.00702 µM	112	127	123
RPMI 5 mM glucose + 10% dialyzed FBS, 0.0211 µM	120	119	21.4
RPMI 5 mM glucose + 10% dialyzed FBS, 0.0632 µM	118	122	112
RPMI 5 mM glucose + 10% dialyzed FBS, 0.19 µM	126	118	102
RPMI 5 mM glucose + 10% dialyzed FBS, 0.569 µM	107	117	116
RPMI 5 mM glucose + 10% dialyzed FBS, 1.71 µM	121	111	110
RPMI 5 mM glucose + 10% dialyzed FBS, 5.12 µM	114	105	122
RPMI 5 mM glucose + 10% dialyzed FBS, 15.4 µM	93.7	89	86.3
RPMI 5 mM glucose + 10% dialyzed FBS, 46.1 µM	71.5	35.5	21.4

O=C1NC(=O)/C(=C\c2ccc(-c3ccc(F)cc3)o2)S1
AUC of viability dose-response curve
Conditions	NOMO1 [1]	P12-Ichikawa [2]	SEM cells [3]
HPLM + 10% dialyzed FBS	415	436	455
RPMI 5 mM glucose + 10% FBS	462	445	462
RPMI 5 mM glucose + 10% dialyzed FBS	444	455	457
